Measurements reported in ChEMBL document CHEMBL5223102, “CDK9 inhibitors in cancer research” (RSC Med Chem, 2022).
Each block holds one compound with its values, some of them ahead of it.

What was measured:
[1] = target: T1, Cyclin-dependent kinase 4 (Homo sapiens, UniProt P11802); assay: Inhibition of CDK4 (unknown origin)
[2] = target: Cyclin-dependent kinase 1/cyclin B1 (Homo sapiens, UniProt P06493); assay: Inhibition of CDK1/cyclin B1 (unknown origin) assessed as substrate phosphorylation using ULight MBP peptide as substrate in presence of ATP incubated for 1 hr by FRET based LANCE Ultra KinaSelect screen assay; assay type: protein-complex assay
[3] = target: T2, Cyclin-dependent kinase 7 (Homo sapiens, UniProt P50613); assay: Inhibition of CDK7 (unknown origin) assessed as substrate phosphorylation using ULight MBP peptide as substrate in presence of ATP incubated for 1 hr by FRET based LANCE Ultra KinaSelect screen assay
[4] = target: T3, Cyclin-dependent kinase 6 (Homo sapiens, UniProt Q00534); assay: Inhibition of CDK6 (unknown origin) assessed as substrate phosphorylation using ULight MBP peptide as substrate in presence of ATP incubated for 1 hr by FRET based LANCE Ultra KinaSelect screen assay
[5] = target: T4, Cyclin-dependent kinase 4/cyclin D1 (Homo sapiens, UniProt P11802); assay: Inhibition of CDK4/cyclin D1 (unknown origin) assessed as substrate phosphorylation using ULight MBP peptide as substrate in presence of ATP incubated for 1 hr by FRET based LANCE Ultra KinaSelect screen assay; assay type: protein-complex assay
[6] = target: T5, Cyclin-dependent kinase 2/cyclin A (Homo sapiens, UniProt P24941); assay: Inhibition of CDK2/cyclin A (unknown origin) assessed as substrate phosphorylation using ULight MBP peptide as substrate in presence of ATP incubated for 1 hr by FRET based LANCE Ultra KinaSelect screen assay; assay type: protein-complex assay
CDK9/Cyclin K = CDK9/Cyclin K (Homo sapiens, UniProt P50750); assay: Inhibition of CDK9/Cyclin K (unknown origin) by LanthaScreen binding assay; assay type: protein-complex assay
CDK8/Cyclin C = CDK8/Cyclin C (Homo sapiens, UniProt P49336); assay: Inhibition of CDK8/Cyclin C (unknown origin) by LanthaScreen binding assay; assay type: protein-complex assay
[7] = target: Cyclin-C/Cyclin-dependent kinase 19 (Homo sapiens, UniProt Q9BWU1); assay: Inhibition of CDK19/Cyclin C (unknown origin) by LanthaScreen binding assay; assay type: protein-complex assay
[8] = target: T6, Cyclin-dependent kinase 17 (Homo sapiens, UniProt Q00537); assay: Inhibition of CDK17 (unknown origin) by Kinomescan method
[9] = target: T7, Cyclin-dependent kinase 8 (Homo sapiens, UniProt P49336); assay: Inhibition of CDK8 (unknown origin) by Kinomescan method
[10] = target: T8, Cyclin-dependent kinase 16 (Homo sapiens, UniProt Q00536); assay: Inhibition of CDK16 (unknown origin) by Kinomescan method
[11] = target: T9, Cyclin-dependent kinase 14 (Homo sapiens, UniProt O94921); assay: Inhibition of CDK14 (unknown origin) by Kinomescan method
[12] = target: T10, Cyclin-dependent kinase 9 (Homo sapiens, UniProt P50750); assay: Inhibition of CDK9 (unknown origin) by Kinomescan method
[13] = target: T11, Cyclin-dependent kinase 18 (Homo sapiens, UniProt Q07002); assay: Inhibition of CDK18 (unknown origin) by Kinomescan method
[14] = target: T10, Cyclin-dependent kinase 9; assay: Inhibition of CDK9 (unknown origin) at 1 uM by Kinomescan method
[15] = target: Dual specificity tyrosine-phosphorylation-regulated kinase 1B (Homo sapiens, UniProt Q9Y463); assay: Inhibition of DYRK1B (unknown origin) by Kinomescan method
[16] = target: T12, Cyclin-dependent kinase 5 (Homo sapiens, UniProt Q00535); assay: Inhibition of CDK5 (unknown origin) by Kinomescan method
[17] = target: T2, Cyclin-dependent kinase 7
[18] = target: T13, Cyclin-dependent kinase 1 (Homo sapiens, UniProt P06493); assay: Inhibition of CDK1 (unknown origin) by Kinomescan method
[19] = target: T14, Cyclin-dependent kinase 2 (Homo sapiens, UniProt P24941); assay: Inhibition of CDK2 (unknown origin) by Kinomescan method
[20] = target: T14, Cyclin-dependent kinase 2
[21] = target: T3, Cyclin-dependent kinase 6; assay: Inhibition of CDK6 (unknown origin)
[22] = target: T7, Cyclin-dependent kinase 8; assay: Inhibition of CDK8 (unknown origin)
[23] = target: T12, Cyclin-dependent kinase 5; assay: Inhibition of CDK5 (unknown origin)
[24] = target: T15, Protein cereblon/Cyclin-dependent kinase 9 (Homo sapiens, UniProt P50750+Q96SW2); assay: Protac activity at CRBN/CDK9 in human MCF7 cells assessed as degradation of CDK9 measured after 24 hrs by western blot analysis; assay type: cell-based
[25] = Inhibition of CDK7/Cyclin H/MAT1 (unknown origin); parameters: species or system Homo sapiens
[26] = Inhibition of CDK4/Cyclin D (unknown origin); parameters: species or system Homo sapiens
[27] = Inhibition of CDK6/Cyclin D3 (unknown origin); parameters: species or system Homo sapiens
[28] = target: T16, Cyclin-dependent kinase 1/cyclin B (Homo sapiens, UniProt P06493); assay: Inhibition of CDK1/Cyclin B (unknown origin); assay type: protein-complex assay
[29] = Inhibition of CDK3/Cyclin E (unknown origin); parameters: species or system Homo sapiens
[30] = target: Cyclin-dependent kinase 5/CDK5 activator 1 (Homo sapiens, UniProt Q00535); assay: Inhibition of CDK5/p35 (unknown origin); assay type: protein-complex assay
[31] = target: T15, Protein cereblon/Cyclin-dependent kinase 9; assay: Protac activity at CRBN/CDK9 in human MOLT-4 cells assessed as degradation of CDK9 measured after 6 hrs by western blot analysis; assay type: cell-based
[32] = target: T14, Cyclin-dependent kinase 2; assay: Inhibition of CDK2 (unknown origin) incubated for 120 mins in presence of ATP by HotSpot kinase assay
[33] = target: Cyclin-dependent kinase 3 (Homo sapiens, UniProt Q00526); assay: Inhibition of CDK3 (unknown origin) incubated for 120 mins in presence of ATP by HotSpot kinase assay
[34] = target: T3, Cyclin-dependent kinase 6; assay: Inhibition of CDK6 (unknown origin) incubated for 120 mins in presence of ATP by HotSpot kinase assay
[35] = target: T9, Cyclin-dependent kinase 14; assay: Inhibition of CDK14 (unknown origin) incubated for 120 mins in presence of ATP by HotSpot kinase assay
[36] = target: T8, Cyclin-dependent kinase 16; assay: Inhibition of CDK16 (unknown origin) incubated for 120 mins in presence of ATP by HotSpot kinase assay
[37] = target: T11, Cyclin-dependent kinase 18
[38] = target: T6, Cyclin-dependent kinase 17; assay: Inhibition of CDK17 (unknown origin) incubated for 120 mins in presence of ATP by HotSpot kinase assay
[39] = target: Cyclin-dependent kinase 19 (Homo sapiens, UniProt Q9BWU1); assay: Inhibition of CDK19 (unknown origin) incubated for 120 mins in presence of ATP by HotSpot kinase assay
[40] = target: T1, Cyclin-dependent kinase 4; assay: Inhibition of CDK4 (unknown origin) incubated for 120 mins in presence of ATP by HotSpot kinase assay
[41] = target: T7, Cyclin-dependent kinase 8; assay: Inhibition of CDK8 (unknown origin) incubated for 120 mins in presence of ATP by HotSpot kinase assay
[42] = target: Cyclin-dependent kinase 13 (Homo sapiens, UniProt Q14004)
[43] = target: T12, Cyclin-dependent kinase 5; assay: Inhibition of CDK5 (unknown origin) incubated for 120 mins in presence of ATP by HotSpot kinase assay
[44] = target: Cyclin-dependent kinase 12 (Homo sapiens, UniProt Q9NYV4)
[45] = target: T10, Cyclin-dependent kinase 9; assay: Inhibition of CDK9 (unknown origin) using TMB as substrate by ELISA
CDK9/cyclin T1 = CDK9/cyclin T1 (Homo sapiens, UniProt P50750); assay: Inhibition of human CDK9/cyclin T1 in presence of ATP; assay type: protein-complex assay
CDK4/Cyclin D3 = CDK4/Cyclin D3 (Homo sapiens, UniProt P11802); assay: Inhibition of human CDK4/Cyclin D3 in presence of ATP; assay type: protein-complex assay
[46] = target: T1, Cyclin-dependent kinase 4; assay: Inhibition of CDK4 (unknown origin) by LANCE ULight TR-FRET assay
[47] = target: T13, Cyclin-dependent kinase 1; assay: Inhibition of CDK1 (unknown origin) by LANCE ULight TR-FRET assay
[48] = target: T7, Cyclin-dependent kinase 8; assay: Inhibition of CDK8 (unknown origin) by LANCE ULight TR-FRET assay
[49] = target: T14, Cyclin-dependent kinase 2; assay: Inhibition of CDK2 (unknown origin) by LANCE ULight TR-FRET assay
[50] = target: T2, Cyclin-dependent kinase 7; assay: Inhibition of CDK7 (unknown origin) by LANCE ULight TR-FRET assay
[51] = target: T5, Cyclin-dependent kinase 2/cyclin A; assay: Inhibition of human CDK2/Cyclin A in presence of gamma32P-ATP by scintillation counter analysis; assay type: protein-complex assay
[52] = target: T4, Cyclin-dependent kinase 4/cyclin D1; assay: Inhibition of human CDK4/Cyclin D1 assessed as substrate phosphorylation at ser780 using GST tagged retinoblastoma as substrate in presence of gamma32P-ATP by scintillation counter analysis; assay type: protein-complex assay
[53] = target: T16, Cyclin-dependent kinase 1/cyclin B; assay: Inhibition of human CDK1/Cyclin B in presence of gamma32P-ATP by scintillation counter analysis; assay type: protein-complex assay
CDK6/cyclin D3 = CDK6/cyclin D3 (Homo sapiens, UniProt Q00534); assay: Inhibition of human CDK6/Cyclin D3 in presence of gamma32P-ATP by scintillation counter analysis; assay type: protein-complex assay
[54] = target: T5, Cyclin-dependent kinase 2/cyclin A; assay: Inhibition of CDK2/cyclin A (unknown origin) using GST-CTD and gamma-32P-ATP as substrate incubated for 5 min by […]; assay type: protein-complex assay
[55] = target: T10, Cyclin-dependent kinase 9

T12 sequence (Q00535 whole entry): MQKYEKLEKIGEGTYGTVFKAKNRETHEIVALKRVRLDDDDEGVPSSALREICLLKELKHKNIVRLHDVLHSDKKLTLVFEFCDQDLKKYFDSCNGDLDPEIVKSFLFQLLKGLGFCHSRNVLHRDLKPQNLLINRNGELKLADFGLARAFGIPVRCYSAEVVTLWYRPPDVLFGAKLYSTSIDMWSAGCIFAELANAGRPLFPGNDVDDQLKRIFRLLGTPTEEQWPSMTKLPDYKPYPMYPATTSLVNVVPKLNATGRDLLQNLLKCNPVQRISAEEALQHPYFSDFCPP
T3 sequence (Q00534 whole entry): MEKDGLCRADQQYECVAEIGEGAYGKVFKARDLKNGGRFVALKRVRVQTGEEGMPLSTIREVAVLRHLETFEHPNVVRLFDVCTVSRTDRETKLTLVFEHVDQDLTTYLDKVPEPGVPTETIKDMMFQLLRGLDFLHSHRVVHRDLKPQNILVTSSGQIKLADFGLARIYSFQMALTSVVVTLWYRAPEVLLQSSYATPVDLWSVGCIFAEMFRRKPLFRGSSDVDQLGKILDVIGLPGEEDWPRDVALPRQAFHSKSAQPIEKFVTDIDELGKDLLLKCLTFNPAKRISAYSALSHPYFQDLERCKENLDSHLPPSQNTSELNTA
T1 sequence (P11802 whole entry): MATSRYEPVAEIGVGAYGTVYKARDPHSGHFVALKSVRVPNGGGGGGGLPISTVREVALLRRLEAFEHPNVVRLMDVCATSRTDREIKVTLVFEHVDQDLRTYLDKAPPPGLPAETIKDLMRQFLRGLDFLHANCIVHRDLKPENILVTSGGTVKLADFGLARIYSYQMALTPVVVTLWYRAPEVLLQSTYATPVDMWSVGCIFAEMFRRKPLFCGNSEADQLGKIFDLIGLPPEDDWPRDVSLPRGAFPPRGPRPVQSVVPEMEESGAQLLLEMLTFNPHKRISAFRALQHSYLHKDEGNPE
T10 sequence (P50750 whole entry): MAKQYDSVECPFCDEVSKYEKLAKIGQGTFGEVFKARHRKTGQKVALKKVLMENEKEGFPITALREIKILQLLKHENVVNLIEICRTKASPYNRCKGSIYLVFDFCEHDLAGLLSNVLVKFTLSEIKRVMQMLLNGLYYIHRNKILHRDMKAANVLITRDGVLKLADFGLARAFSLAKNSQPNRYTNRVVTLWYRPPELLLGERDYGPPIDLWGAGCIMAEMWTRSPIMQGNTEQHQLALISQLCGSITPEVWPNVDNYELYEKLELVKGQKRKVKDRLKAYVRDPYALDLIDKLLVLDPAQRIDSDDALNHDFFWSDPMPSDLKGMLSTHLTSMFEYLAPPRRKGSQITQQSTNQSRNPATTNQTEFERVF
T7 sequence (P49336 whole entry): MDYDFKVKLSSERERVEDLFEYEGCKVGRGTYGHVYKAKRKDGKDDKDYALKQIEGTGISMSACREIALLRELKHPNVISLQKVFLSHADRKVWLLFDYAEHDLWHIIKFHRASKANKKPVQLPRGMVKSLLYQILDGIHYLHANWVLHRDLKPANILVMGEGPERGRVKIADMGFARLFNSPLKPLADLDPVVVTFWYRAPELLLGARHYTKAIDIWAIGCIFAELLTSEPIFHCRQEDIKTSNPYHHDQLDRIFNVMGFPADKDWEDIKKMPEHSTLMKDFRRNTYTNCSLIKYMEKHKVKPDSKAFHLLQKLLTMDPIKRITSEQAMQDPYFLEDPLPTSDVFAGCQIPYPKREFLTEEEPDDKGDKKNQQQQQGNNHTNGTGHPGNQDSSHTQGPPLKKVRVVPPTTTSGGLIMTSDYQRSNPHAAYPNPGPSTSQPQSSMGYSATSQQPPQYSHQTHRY
T2 sequence (P50613 whole entry): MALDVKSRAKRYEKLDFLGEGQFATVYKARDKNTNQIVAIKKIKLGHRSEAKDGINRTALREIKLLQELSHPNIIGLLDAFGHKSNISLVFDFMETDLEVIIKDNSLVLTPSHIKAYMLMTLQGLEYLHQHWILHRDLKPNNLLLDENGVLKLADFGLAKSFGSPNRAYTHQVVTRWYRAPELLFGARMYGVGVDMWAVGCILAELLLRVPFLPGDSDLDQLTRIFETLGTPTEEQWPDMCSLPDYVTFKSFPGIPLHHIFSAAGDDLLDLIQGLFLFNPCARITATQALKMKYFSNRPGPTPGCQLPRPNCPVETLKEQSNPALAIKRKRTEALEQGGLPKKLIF
Chain of Cyclin-dependent kinase 5/CDK5 activator 1 (Q00535 whole entry): as the sequence (Q00535 whole entry) above
Chain of Cyclin-dependent kinase 5/CDK5 activator 1 (Q15078 whole entry, further chain): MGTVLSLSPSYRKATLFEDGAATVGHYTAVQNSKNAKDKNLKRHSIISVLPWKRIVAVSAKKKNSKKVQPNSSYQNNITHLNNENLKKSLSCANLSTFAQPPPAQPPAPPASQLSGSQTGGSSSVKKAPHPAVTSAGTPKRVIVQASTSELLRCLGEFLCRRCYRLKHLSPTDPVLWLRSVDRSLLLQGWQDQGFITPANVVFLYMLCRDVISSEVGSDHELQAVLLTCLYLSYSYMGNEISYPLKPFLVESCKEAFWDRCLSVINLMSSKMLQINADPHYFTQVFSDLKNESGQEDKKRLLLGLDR
T9 sequence (O94921 whole entry): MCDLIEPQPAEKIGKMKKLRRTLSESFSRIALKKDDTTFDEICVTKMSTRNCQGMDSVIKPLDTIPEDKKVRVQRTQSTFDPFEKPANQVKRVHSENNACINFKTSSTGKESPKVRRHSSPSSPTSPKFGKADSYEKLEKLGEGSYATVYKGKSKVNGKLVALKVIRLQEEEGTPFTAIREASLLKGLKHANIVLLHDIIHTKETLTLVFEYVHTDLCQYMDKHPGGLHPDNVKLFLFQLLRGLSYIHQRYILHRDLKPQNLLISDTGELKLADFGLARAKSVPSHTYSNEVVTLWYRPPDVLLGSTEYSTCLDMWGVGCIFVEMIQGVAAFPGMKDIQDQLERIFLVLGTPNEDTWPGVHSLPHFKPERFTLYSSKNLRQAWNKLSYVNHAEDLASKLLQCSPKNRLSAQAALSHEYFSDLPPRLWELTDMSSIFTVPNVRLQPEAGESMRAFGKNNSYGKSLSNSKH
T4 sequence (P11802 whole entry): as the sequence (P11802 whole entry) above
T4 sequence (P24385 whole entry, further chain): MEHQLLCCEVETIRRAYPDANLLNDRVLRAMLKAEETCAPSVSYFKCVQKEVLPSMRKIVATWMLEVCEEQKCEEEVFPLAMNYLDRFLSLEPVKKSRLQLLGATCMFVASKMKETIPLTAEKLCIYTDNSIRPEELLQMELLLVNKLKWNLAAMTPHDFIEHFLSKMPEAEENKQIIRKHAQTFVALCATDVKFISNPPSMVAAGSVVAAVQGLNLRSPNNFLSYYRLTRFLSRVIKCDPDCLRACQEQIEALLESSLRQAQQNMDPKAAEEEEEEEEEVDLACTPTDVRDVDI
T15 sequence (P50750 whole entry): as the sequence (P50750 whole entry) above
T15 sequence (Q96SW2 whole entry): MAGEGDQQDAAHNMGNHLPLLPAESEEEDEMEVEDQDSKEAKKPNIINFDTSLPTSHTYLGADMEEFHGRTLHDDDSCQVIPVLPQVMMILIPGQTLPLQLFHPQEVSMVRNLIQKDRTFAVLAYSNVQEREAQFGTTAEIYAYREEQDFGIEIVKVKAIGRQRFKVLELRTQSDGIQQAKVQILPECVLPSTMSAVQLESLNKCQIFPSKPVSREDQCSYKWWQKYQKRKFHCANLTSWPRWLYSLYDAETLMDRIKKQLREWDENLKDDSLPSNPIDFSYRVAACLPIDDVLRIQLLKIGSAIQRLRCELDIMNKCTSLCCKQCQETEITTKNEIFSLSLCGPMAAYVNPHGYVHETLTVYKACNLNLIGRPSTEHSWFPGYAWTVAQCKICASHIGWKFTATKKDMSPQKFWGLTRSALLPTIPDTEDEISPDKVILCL
T13 sequence (P06493 whole entry): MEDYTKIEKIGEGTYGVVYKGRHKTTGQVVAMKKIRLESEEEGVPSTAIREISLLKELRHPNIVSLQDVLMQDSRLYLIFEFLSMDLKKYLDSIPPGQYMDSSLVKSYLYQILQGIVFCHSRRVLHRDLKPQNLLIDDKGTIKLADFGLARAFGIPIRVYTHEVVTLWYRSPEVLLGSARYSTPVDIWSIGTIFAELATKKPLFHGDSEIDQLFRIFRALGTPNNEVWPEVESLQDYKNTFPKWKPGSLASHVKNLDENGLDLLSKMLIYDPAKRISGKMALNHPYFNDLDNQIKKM
T8 sequence (Q00536 whole entry): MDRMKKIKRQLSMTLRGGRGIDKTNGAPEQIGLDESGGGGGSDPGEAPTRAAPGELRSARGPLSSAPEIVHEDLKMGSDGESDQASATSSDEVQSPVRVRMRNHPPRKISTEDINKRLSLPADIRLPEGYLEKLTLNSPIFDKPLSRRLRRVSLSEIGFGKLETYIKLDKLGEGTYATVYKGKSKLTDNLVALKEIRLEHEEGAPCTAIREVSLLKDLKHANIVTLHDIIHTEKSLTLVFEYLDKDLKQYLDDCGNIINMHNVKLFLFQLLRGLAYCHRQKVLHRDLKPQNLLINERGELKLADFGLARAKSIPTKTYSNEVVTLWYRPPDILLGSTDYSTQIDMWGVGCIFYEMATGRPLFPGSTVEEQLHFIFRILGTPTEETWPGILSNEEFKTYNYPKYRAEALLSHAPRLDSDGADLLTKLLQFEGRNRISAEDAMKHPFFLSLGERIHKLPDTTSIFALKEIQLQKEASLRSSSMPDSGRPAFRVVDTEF

Compound: Fc1ccc(N2CCCCC2)c(NC(=S)c2ccncc2)c1
IC50 [1]: 30000 nM

Compound: COC[C@@H](C)N[C@H]1CC[C@H](Nc2cc(-c3cccc(NCC4(C#N)CCOCC4)n3)c(Cl)cn2)CC1
IC50 [8]: 1500 nM
IC50 [9]: > 10000 nM
IC50 [10]: 605 nM
IC50 [11]: 3450 nM
IC50 [12]: < 0.514 nM
IC50 [13]: 4900 nM
inhibition [14]: 99%
IC50 [15]: 350 nM
IC50 [16]: 1050 nM
IC50 [17]: > 10000 nM
IC50 [18]: 584 nM
IC50 [19]: 706 nM

Compound: CN1CC[C@@H](c2c(O)cc(O)c3c(=O)cc(-c4ccc(C(F)(F)F)cc4Cl)oc23)[C@@H]1CO [VORUCICLIB]
IC50 [20]: 180 nM
IC50 [21]: 210 nM
IC50 [22]: 12 nM
IC50 [23]: 210 nM

Compound: Nc1nc(N[C@H]2CC3CCC2C3)sc1C(=O)c1ccccc1[N+](=O)[O-] (some centres not stated)
IC50 [25]: 555 nM
IC50 [26]: 112 nM
IC50 [27]: 712 nM
IC50 [28]: 138 nM
IC50 [29]: 399 nM
IC50 [30]: 159 nM

Compound: CC(C)(C)c1cnc(CSc2cnc(NC(=O)C3CCN(CC(=O)NCCOCCOCCOCCNc4cccc5c4C(=O)N(C4CCC(=O)NC4=O)C5=O)CC3)s2)o1 (configuration not stated)
DC50 [31]: < 250 nM

Compound: CCCc1cc(N[C@@H]2CC[C@@H](N)C2)n2nccc2n1
IC50 [32]: 18200 nM
IC50 [33]: > 1200 nM
IC50 [34]: > 1200 nM
IC50 [35]: > 1200 nM
IC50 [36]: > 1200 nM
IC50 [37]: > 1200 nM
IC50 [38]: > 1200 nM
IC50 [39]: > 1200 nM
IC50 [40]: > 1200 nM
IC50 [41]: > 1200 nM
IC50 [42]: 4550 nM
IC50 [43]: > 1200 nM
IC50 [44]: 6200 nM

Compound: CN(C)CCNC(=O)c1ccc(Nc2ncc3cc(C(=O)N(C)C)n(C4CCCC4)c3n2)c(F)c1
IC50 (CDK9/cyclin T1): 7 nM
IC50 (CDK4/Cyclin D3): 2.5 nM

Compound: COc1ccc(F)cc1-c1c(F)cnc2[nH]c(C3=CCN([C@H]4CC[C@H](C(=O)O)CC4)CC3)cc12
IC50 [46]: 16.2 nM
IC50 [47]: 348 nM
IC50 [48]: 1610 nM
IC50 [49]: 328 nM
IC50 [50]: 14400 nM

Compound: CN1CCC(c2c(O)cc(O)c3c(=O)cc(-c4ccccc4Cl)oc23)C1CO (configuration not stated) [RIVICICLIB]
IC50 [51]: 224 nM
IC50 [52]: 63 nM
IC50 [53]: 79 nM
IC50 (CDK6/cyclin D3): 396 nM

Compound: Nc1n[nH]c(N)c1/N=N/c1ccc(O)cc1
IC50 [54]: 3500 nM

Compound: COc1cc(O)c2c(=O)cc(-c3ccc(N4CCN(C)CC4)cc3)oc2c1N1CCNCC1
IC50 [55]: 30 nM
IC50 [20]: 1180 nM

Second part, the compound after the results:

IC50 [2]: 5510 nM
IC50 [3]: > 10000 nM
IC50 [4]: > 10000 nM
IC50 [5]: 9240 nM
IC50 [6]: 2440 nM
Compound: COc1ccccc1-c1cc(Nc2cccc(CS(N)(=O)=O)c2)ncn1

IC50 (CDK9/Cyclin K): 20 nM
IC50 (CDK8/Cyclin C): 1.1 nM
IC50 [7]: 2.7 nM
Compound: CC(C)c1ccc(Nc2nccc(-c3cnn4ncccc34)n2)cc1 [GW805758X]

DC50 [24]: 10000 nM
Compound: O=C1CCC(N2C(=O)c3cccc(NC(=O)CCCCCn4cc(Oc5c(O)cc(O)c6c(=O)cc(-c7ccccc7)oc56)nn4)c3C2=O)C(=O)N1 (configuration not stated)

IC50 [30]: 5 nM
Compound: COCCN1CCN(Cc2ccc(-c3n[nH]c4c3C(=O)c3c(NC(=O)NN5CCOCC5)cccc3-4)cc2)CC1 [RGB-286638]

IC50 [45]: 500 nM
Compound: O=C1N=NC(=O)/C(=C/Nc2ccc(-c3nc4ncccc4[nH]3)cc2)C(=O)N1
